Assay results taken from US7951814B2, “Quinazolinedione derivatives as TRPA1 modulators” (Glenmark Pharmaceuticals, S.A., priority 2008, dated 2011).
Like-named read-outs stand apart in the source and are kept apart here.

Experiments:
[1] = molecular target: T1, Human TRPA1 expressing CHO cells (Homo sapiens, UniProt O75762); assay: 45Calcium uptake assay: inhibition of AITC induced cellular uptake of radioactive calcium; type: cell-based; settings: AITC 30 μM, human TRPA1 CHO cells; for inhibition at 1 µM: 1.0 μM test compound, read-out: Percentage inhibition at 1.0 μM; for inhibition at 10 µM: 10.0 μM test compound, read-out: Percentage inhibition at 10.0 μM; for IC50: read-out: IC50 value (range)
T1 construct: expressed in transfected cells; host or cells: CHO cells (under G-418 selection)
Procedure, shortened: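 CHO cells expressing human TRPA1 were preincubated 10 min with compound (0.5% DMSO final), then stimulated 3 min with 30 μM AITC plus 5 μCi/ml 45Ca2+. Lysate radioactivity gave % of maximal uninhibited response; IC50 by nonlinear regression.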

[2] = system: male SD rats; assay: AITC-induced nocifensive behaviour in rats; type: in vivo, rat; settings: 10 mg/kg, p.o., AITC 5%
From the text: (§1) The illustrative examples of the present invention are screened for ‘in vivo’ TRPA1 based efficacy in various models of pain/hyperalgesia according to modified procedures described in (a) McNamara C R et al., PNASU (2007), 104, 13525-13530 (b) Eid S R et al., Molecular Pain, (2008), 4, 48 (c) Bennett G J and Xie Y K, Pain (1988), 33, 87-107. The screening of the compounds can also be carried out by some other methods and procedures known to persons skilled in the art.
AITC-Induced Nocifensive Behaviour in Rats
Allyl isothiocyanate (AITC), a selective activator of TRPA1 receptor channel, induces nocifensive behavior (paw flinching and licking responses) in rats. The number of flinches and licking responses were counted for 45 min following the injection of 5% AITC into the plantar region of the paw. AITC being an activator of TRPA1 receptor, this model serves as a mechanistic validation for screened molecules as selective antagonists at TRPA1 channel receptor.

[3] = system: rats; assay: FCA (Freund's Complete Adjuvant)-induced inflammatory mechanical hyperalgesia; type: in vivo, rat; settings: for maximum efficacy against FCA-induced mechanical hyperalgesia: rats
From the text: as §1
FCA (Freund's Complete Adjuvant)-Induced Inflammatory Hyperalgesia
Freund's Complete Adjuvant (FCA), containing heat killed, dried Mycobaterium tuberculosis (1 mg/ml) emulsified in mineral oil and mannide monooleate, when injected (30 μl) into the plantar region of the paw of mice and rats induces an inflammatory hyperalgesia. Mechanical hyperalgesia (24 h after injection) was assessed by measuring hind paw withdrawal thresholds to an increasing pressure (g) stimulus, using the Randall-Sellitto analgesymeter (37215, Ugo Basile, Italy) fitted with a wedge-shaped probe.

[4] = Plasma levels after oral dosing in the rat pain models; type: in vivo; settings: for concentration at 4 h / concentration at 2 h: Sprague-Dawley, AITC model; for concentration at 2 h: p.o.
[5] = system: male SD rats; assay: Formalin-induced nocifensive behaviour; type: in vivo, rat; settings: 10 mg/kg, p.o., given 1.5 h (compound 10) or 3 h (compound 37) prior to formalin (2.5%)
From the text: as §1
Formalin-Induced Nocifensive Behaviour
Formalin also induces nocifensive behaviour (paw flinching and licking responses) in rats and mice. TRPA1-deficient mice show marked attenuation of characteristic paw flinching and licking responses as a result of intraplantar injection of formalin in a characteristic early and late phase manner. This model also serves as a selective TRPA1 based mechanistic model.
Compound 10 and compound 37 inhibited the formalin-induced nocifensive licking behaviour in both early & late phases in male SD rats.

[6] = system: male SD rats; assay: Chronic Constriction Injury (CCI)-induced neuropathic pain (Bennett's model); type: in vivo, rat
From the text: as §1
Chronic Constriction Injury (CCI)-Induced Neuropathic Pain (Bennett's Model)
Chronic constriction injury (CCI) of sciatic nerve in rats and mice induces inflammatory mechanical hyperalgesia in this Bennet's neuropathic pain model. Rats were anesthetized using ketamine/xylazine (40/5 mg/kg, i.p.) and the left sciatic nerve was exposed at mid thigh level through a small incision. Four loose ligatures of 4-0 chromic cat gut (Ethicon-Johnson & Johnson) at 1 mm space were placed around the sciatic nerve […] of common sciatic nerve. After 6-7 days, mechanical hyperalgesia was assessed by measuring hind paw withdrawal thresholds to an increasing pressure (g) stimulus, using the Randall-Sellitto analgesymeter (Ugo Basile, Italy), fitted with a wedge-shaped probe.

[7] = rat, plasma, oral, 10 mg/kg, male SD rats

T1 sequence (O75762 whole entry): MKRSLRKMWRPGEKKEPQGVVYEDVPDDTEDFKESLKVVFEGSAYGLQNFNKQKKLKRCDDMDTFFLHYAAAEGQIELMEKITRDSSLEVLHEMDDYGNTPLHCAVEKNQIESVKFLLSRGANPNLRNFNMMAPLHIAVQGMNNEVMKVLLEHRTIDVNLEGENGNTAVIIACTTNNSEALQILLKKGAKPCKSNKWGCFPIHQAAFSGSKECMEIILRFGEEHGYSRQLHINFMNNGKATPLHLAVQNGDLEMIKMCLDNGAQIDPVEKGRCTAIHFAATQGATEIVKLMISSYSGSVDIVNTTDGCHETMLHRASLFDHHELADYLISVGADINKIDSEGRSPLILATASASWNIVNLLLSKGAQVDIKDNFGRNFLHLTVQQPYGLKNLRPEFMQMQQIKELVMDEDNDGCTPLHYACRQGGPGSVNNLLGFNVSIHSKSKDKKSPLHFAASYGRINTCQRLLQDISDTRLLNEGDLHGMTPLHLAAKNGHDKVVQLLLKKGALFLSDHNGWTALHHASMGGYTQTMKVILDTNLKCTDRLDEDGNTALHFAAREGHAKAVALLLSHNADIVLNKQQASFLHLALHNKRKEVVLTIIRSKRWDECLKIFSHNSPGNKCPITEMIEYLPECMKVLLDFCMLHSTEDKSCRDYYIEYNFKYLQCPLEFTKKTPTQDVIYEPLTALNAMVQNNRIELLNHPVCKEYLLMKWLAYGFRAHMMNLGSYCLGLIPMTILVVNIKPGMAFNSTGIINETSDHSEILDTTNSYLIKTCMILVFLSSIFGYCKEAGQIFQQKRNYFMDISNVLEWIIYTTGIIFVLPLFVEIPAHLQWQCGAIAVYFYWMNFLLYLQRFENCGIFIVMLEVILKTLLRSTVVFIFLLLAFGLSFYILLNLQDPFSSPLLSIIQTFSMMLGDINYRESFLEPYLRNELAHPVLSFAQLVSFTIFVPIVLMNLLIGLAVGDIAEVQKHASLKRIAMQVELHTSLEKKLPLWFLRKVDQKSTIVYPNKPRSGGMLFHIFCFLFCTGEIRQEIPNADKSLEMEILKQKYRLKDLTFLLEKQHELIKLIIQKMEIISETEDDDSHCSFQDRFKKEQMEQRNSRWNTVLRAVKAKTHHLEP

Structure (SMILES) | inhibition at 1 µM [1] [%] | inhibition at 10 µM [1] [%] | IC50 [1] [nM] | also measured
Cn1c(=O)c2c(CC(=O)Nc3nc(-c4cccc(C(F)(F)F)c4)cs3)cccc2n(C)c1=O [Example 15, N1-[4-(3-Trifluoromethylphenyl)-1,3-thiazol-2yl]-2-(1,3-dimethyl-2,4-dioxo-1,2,3,4-tetrahydro-5-quinazolinyl)acetamide] | 98 | 100 | < 50 | inhibition of AITC induced flinching [2]: 59%; maximum efficacy against FCA-induced mechanical hyperalgesia ([3]; 30 mg/kg (p.o.)): ~70%; concentration at 4 h [4, 7]: 9800 ng/mL; concentration at 1 h ([4]; rat, plasma, oral, 30 mg/kg (p.o.), FCA model, rats): 3430 ng/mL
Cn1c(=O)c2c(CC(=O)Nc3nc(-c4ccccc4)cs3)cccc2n(C)c1=O [Example 8, N1-[4-phenyl-1,3-thiazol-2-yl]-2-(1,3-dimethyl-2,4-dioxo-1,2,3,4-tetrahydro-5-quinazolinyl)acetamide] | 52.9 | 79.9 | – | –
Cc1ccc(-c2csc(NC(=O)Cc3cccc4c3c(=O)n(C)c(=O)n4C)n2)cc1 [Example 24, N1-[4-(4-Methylphenyl)-1,3-thiazol-2yl]-2-(1,3-dimethyl-2,4-dioxo-1,2,3,4-tetrahydro-5-quinazolinyl)acetamide] | 83.9 | 96.8 | 50.1 to 100 | –
Cn1c(=O)c2c(CC(=O)Nc3nc(-c4ccc(C(F)(F)F)c(F)c4)cs3)cccc2n(C)c1=O [Example 37, N1-[4-(3-Fluoro-4-trifluoromethylphenyl)-1,3-thiazol-2-yl]-2-(1,3-dimethyl-2,4-dioxo-1,2,3,4-tetrahydro-5-quinazolinyl)acetamide] | 97.5 | 99.4 | < 50 | inhibition of AITC induced flinching [2]: 39%; inhibition of the early phase nocifensive behaviour [5]: 18%; inhibition of the late phase nocifensive behaviour [5]: 59%; concentration at 4 h [4, 7]: 6200 ng/mL
Cn1c(=O)c2c(CC(=O)Nc3nc(-c4ccc(F)cc4)cs3)cccc2n(C)c1=O [Example 9, N1-[4-(4-Fluorophenyl)-1,3-thiazol-2yl]-2-(1,3-dimethyl-2,4-dioxo-1,2,3,4-tetrahydro-5-quinazolinyl)acetamide] | 30.8 | 43.8 | – | –
CCOC(=O)n1c(=O)[nH]c2cccc(CC(=O)Nc3nc(-c4ccc(Cl)cc4)cs3)c2c1=O [Example 28] | 2.8 | 6.54 | – | –
O=C(Cc1cccc2[nH]c(=O)[nH]c(=O)c12)Nc1nc(-c2ccc(Cl)cc2)cs1 [Example 29, N1-[4-(4-Chlorophenyl)-1,3-thiazol-2-yl]-2-(2,4-dioxo-1,2,3,4-tetrahydro-5-quinazolinyl)acetamide] | 20.9 | 47.7 | – | –
Cn1c(=O)c2c(CC(=O)Nc3ccc(-c4ccc(Br)cc4)cc3)cccc2n(C)c1=O [Example 2, N1-[4-(4-Bromophenyl)phenyl]-2-(1,3-dimethyl-2,4-dioxo-1,2,3,4-tetrahydro-5-quinazolinyl)acetamide] | 25.3 | 50.8 | – | –
Cn1c(=O)c2c(CC(=O)Nc3nc(-c4ccc(OC(F)(F)F)c(F)c4)cs3)cccc2n(C)c1=O [Example 41] | 74.4 | 99.7 | < 50 | –
Cn1c(=O)c2c(CC(=O)Nc3nc(-c4ccc(OC(F)F)c(F)c4)cs3)cccc2n(C)c1=O [Example 44, N1-[4-(4-Difluoromethoxyl-3-fluorophenyl)-1,3-thiazol-2-yl]-2-(1,3-dimethyl-2,4-dioxo-1,2,3,4-tetrahydro-5-quinazolinyl)acetamide] | 46.2 | 99.2 | – | –
Cn1c(=O)c2c(CC(=O)Nc3nc(-c4ccc(Cl)cc4)cs3)cccc2n(C)c1=O [Example 10] | 99.7 | 99.9 | 50.1 to 100 | inhibition of the early phase nocifensive behaviour [5]: 58%; inhibition of the late phase nocifensive behaviour [5]: 58%; maximum efficacy against FCA-induced mechanical hyperalgesia ([3]; 10 mg/kg, p.o.): 81%; ED50 ([3]; Rattus norvegicus, po, doses 1, 3, 6 and 10 mg/kg): 2.7 mg/kg; maximum efficacy, reversal of CCI-induced hyperalgesia ([6]; 10 mg/kg, acute and chronic administration): 75%; ED50 ([6]; Rattus norvegicus, read-out: ED50, CCI-induced neuropathic hyperalgesia): 3.5 mg/kg; plasma levels ([4]; 10 mg/kg, CCI model, male SD rats): 5100 ng/mL; concentration at 2 h ([4]; rat, plasma, oral, 3 mg/kg, male SD rats, read-out: Plasma levels at 2 h): 2080 ng/mL; concentration at 2 h ([4]; rat, plasma, oral, 10 mg/kg, male SD rats, read-out: Plasma levels at 2 h): 7380 ng/mL; concentration at 2 h ([4]; rat, plasma, oral, 3, 5 and 10 mg/kg, male SD rats, read-out: plasma levels at 2 h post-dose (range over doses)): 2080 to 7380 ng/mL; concentration at 0.5 h ([4]; rat, plasma, oral, 10 mg/kg, FCA model, rats): 3500 ng/mL
Cn1c(=O)c2c(CC(=O)Nc3nc(-c4ccc(F)c(F)c4)cs3)cccc2n(C)c1=O [Example 32, N1-[4-(3,4-Difluorophenyl)-1,3-thiazol-2-yl]-2-(1,3-dimethyl-2,4-dioxo-1,2,3,4-tetrahydro-5-quinazolinyl)acetamide] | 53.7 | 66.3 | – | –

Further lines, with some results ahead:

inhibition at 1 µM [1] [%] | inhibition at 10 µM [1] [%] | IC50 [1] [nM] | Structure (SMILES) | also measured
98.4 | 99.2 | 50.1 to 100 | Cn1c(=O)c2c(CC(=O)Nc3nc(-c4ccc(Cl)c(Cl)c4)cs3)cccc2n(C)c1=O [Example 47, N1-[4-(3,4-Dichlorophenyl)-1,3-thiazol-2yl]-2-(1,3-dimethyl-2,4-dioxo-1,2,3,4-tetrahydro-5-quinazolinyl)acetamide] | –
95.4 | 96.5 | < 50 | Cn1c(=O)c2c(CC(=O)Nc3nc(-c4cc(F)c(OCC5CC5)c(F)c4)cs3)cccc2n(C)c1=O [Example 72, N1-[4-(4-Cyclopropylmethoxy-3,5-difluorophenyl)-1,3-thiazol-2-yl]-2-(1,3-dimethyl-2,4-dioxo-1,2,3,4-tetrahydroquinazolin-5-yl)acetamide] | –
5.49 | 3.46 | – | Cn1c(=O)c2c(CC(=O)Nc3nnc(-c4ccc(Br)cc4)s3)cccc2n(C)c1=O [Example 83, N1-[5-(4-Bromophenyl)-1,3,4-thadiazol-2-yl]-2-(1,3-dimethyl-2,4-dioxo-1,2,3,4-tetrahydro-5-quinazolinyl)acetamide] | –
96.3 | 100 | 50.1 to 100 | Cn1c(=O)c2c(CC(=O)Nc3nc(-c4cc(Cl)cc(Cl)c4)cs3)cccc2n(C)c1=O [Example 48, N1-[4-(3,5-Dichlorophenyl)-1,3-thiazol-2-yl]-2-(1,3-dimethyl-2,4-dioxo-1,2,3,4-tetrahydro-5-quinazolinyl)acetamide] | –
99.9 | 100 | < 50 | Cn1c(=O)c2c(CC(=O)Nc3nc(-c4cc(F)c(OC(F)F)c(F)c4)cs3)cccc2n(C)c1=O [Example 69] | –
33.1 | 88.6 | – | Cn1c(=O)c2c(CC(=O)Nc3nc(-c4c(F)cccc4Cl)cs3)cccc2n(C)c1=O [Example 53, N1-[4-(2-Chloro-6-fluorophenyl)-1,3-thiazol-2-yl]-2-(1,3-dimethyl-2,4-dioxo-1,2,3,4-tetrahydro-5-quinazolinyl)acetamide] | –
